Activity calls are given as the source filed them. The rule behind the calls is not given here.
Columns and labels:
[1] = system: NHDF; test: Cytoprotective activity against human HDF cells assessed as increase in cell viability at 10 uM incubated for 24 hrs by MTT assay; type: functional
[2] = system: NHDF; test: Cytoprotective activity against UV-B irradiation induced human HDF cells assessed as increase in cell viability at 25 uM incubated for 24 hrs by MTT assay; type: functional
[3] = system: NHDF; test: Antioxidant activity in UV-B irradiation induced human HDF cells assessed as decrease in ROS level at 25 uM incubated for 6 hrs by fluorescence microscopy; type: functional, cell-based
[4] = system: NHDF; test: Cytotoxicity against human HDF cells assessed as reduction in cell viability at 10 uM incubated for 24 hrs by MTT assay; type: toxicity, cell-based
[5] = system: NHDF; test: Cytoprotective activity against UV-B irradiation induced human HDF cells assessed as increase in cell viability at 10 uM incubated for 24 hrs by MTT assay; type: functional
[6] = system: NHDF; test: Antiapoptotic activity in UV-B irradiation induced human HDF cells assessed as upregulation of catalase expression level at 50 uM incubated for 24 hrs by western blot analysis; type: functional, cell-based
[7] = system: NHDF; test: Antiapoptotic activity in UV-B irradiation induced human HDF cells assessed as downregulation of MMP1 expression level at 10 to 25 uM incubated for 24 hrs by western blot analysis; type: functional, cell-based; conditions: dose 10-25 µM
[8] = system: NHDF; test: Antiapoptotic activity in UV-B irradiation induced human HDF cells assessed as upregulation of procollagen-1 expression level at 10 to 25 uM incubated for 24 hrs by western blot analysis; type: functional, cell-based; conditions: dose 10-25 µM
[9] = system: NHDF; test: Antiapoptotic activity in UV-B irradiation induced human HDF cells assessed as decrease in mitochondrial membrane potential loss at 10 to 25 uM incubated for 24 hrs by JC-9 staining fluorescence microscopy; type: functional, cell-based; conditions: dose 10-25 µM, DDE = dose-dependent effect
[10] = system: NHDF; test: Antiapoptotic activity in UV-B irradiation induced human HDF cells assessed as upregulation of catalase expression level at 10 to 25 uM incubated for 24 hrs by western blot analysis; type: functional, cell-based; conditions: dose 10-25 µM
[11] = system: NHDF; test: Antioxidant activity in UV-B irradiation induced human HDF cells assessed as decrease in ROS level at 10 to 25 uM incubated for 6 hrs by fluorescence microscopy; type: functional, cell-based; conditions: dose 10-25 µM, DDE = dose-dependent effect

| Compound | Activity [1] [%] | Activity [4] [%] | also measured |
| --- | --- | --- | --- |
| CSc1ccc(/C=C2\C[C@]3(C)[C@H]4C(=O)C=C5[C@@H]6C[C@@](C)(C(=O)O)CC[C@]6(C)CC[C@@]5(C)[C@]4(C)CC[C@H]3C(C)(C)[C@H]2O)cc1 | 109.5 | – | Activity [2]: 12% |
| O=C1O[C@H]([C@@H](O)CO)C(O)=C1O | – | – | Activity [3]: Active |
| COc1ccc(/C=C2\C[C@]3(C)[C@H]4C(=O)C=C5[C@@H]6C[C@@](C)(C(=O)O)CC[C@]6(C)CC[C@@]5(C)[C@]4(C)CC[C@H]3C(C)(C)C2=O)cc1 | – | 11.5 | – |
| COc1ccc(/C=C2\C[C@]3(C)[C@H]4C(=O)C=C5[C@@H]6C[C@@](C)(C(=O)O)CC[C@]6(C)CC[C@@]5(C)[C@]4(C)CC[C@H]3C(C)(C)[C@H]2O)cc1 | 112.5 | – | – |
| COc1ccccc1/C=C1\C[C@]2(C)[C@H]3C(=O)C=C4[C@@H]5C[C@@](C)(C(=O)O)CC[C@]5(C)CC[C@@]4(C)[C@]3(C)CC[C@H]2C(C)(C)C1=O | – | 5.9 | – |
| CC1(C)[C@@H](O)/C(=C/c2ccccc2)C[C@]2(C)[C@H]3C(=O)C=C4[C@@H]5C[C@@](C)(C(=O)O)CC[C@]5(C)CC[C@@]4(C)[C@]3(C)CC[C@@H]12 | – | 7.4 | – |
| COc1ccccc1/C=C1\C[C@]2(C)[C@H]3C(=O)C=C4[C@@H]5C[C@@](C)(C(=O)O)CC[C@]5(C)CC[C@@]4(C)[C@]3(C)CC[C@H]2C(C)(C)[C@H]1O | 114.5 | – | Activity [5]: 6% |
| CCc1ccc(/C=C2\C[C@]3(C)[C@H]4C(=O)C=C5[C@@H]6C[C@@](C)(C(=O)O)CC[C@]6(C)CC[C@@]5(C)[C@]4(C)CC[C@H]3C(C)(C)[C@H]2O)cc1 | 114.5 | – | – |
| COc1cc(Br)c(/C=C2\C[C@]3(C)[C@H]4C(=O)C=C5[C@@H]6C[C@@](C)(C(=O)O)CC[C@]6(C)CC[C@@]5(C)[C@]4(C)CC[C@H]3C(C)(C)[C@H]2O)cc1O | – | 10.3 | – |
| CC1(C)[C@@H](O)CC[C@]2(C)[C@H]3C(=O)C=C4[C@@H]5C[C@@](C)(C(=O)O)CC[C@]5(C)CC[C@@]4(C)[C@]3(C)CC[C@@H]12 [ENOXOLONE] | 106.4 | – | Activity [2]: 17%; Activity [5]: 1% |
| CC1(C)C(=O)/C(=C/c2ccncc2)C[C@]2(C)[C@H]3C(=O)C=C4[C@@H]5C[C@@](C)(C(=O)O)CC[C@]5(C)CC[C@@]4(C)[C@]3(C)CC[C@@H]12 | – | 8.3 | – |
| CC1(C)[C@@H](O)/C(=C/c2cccc3ccccc23)C[C@]2(C)[C@H]3C(=O)C=C4[C@@H]5C[C@@](C)(C(=O)O)CC[C@]5(C)CC[C@@]4(C)[C@]3(C)CC[C@@H]12 | 110.1 | – | – |
| CC1(C)[C@@H](O)/C(=C/c2cccc(F)c2)C[C@]2(C)[C@H]3C(=O)C=C4[C@@H]5C[C@@](C)(C(=O)O)CC[C@]5(C)CC[C@@]4(C)[C@]3(C)CC[C@@H]12 | – | 4.4 | – |
| Cc1ccc(/C=C2\C[C@]3(C)[C@H]4C(=O)C=C5[C@@H]6C[C@@](C)(C(=O)O)CC[C@]6(C)CC[C@@]5(C)[C@]4(C)CC[C@H]3C(C)(C)C2=O)s1 | – | 12.2 | – |
| CCOc1cccc(/C=C2\C[C@]3(C)[C@H]4C(=O)C=C5[C@@H]6C[C@@](C)(C(=O)O)CC[C@]6(C)CC[C@@]5(C)[C@]4(C)CC[C@H]3C(C)(C)[C@H]2O)c1 | 100.1 | – | – |
| COc1ccc(/C=C2\C[C@]3(C)[C@H]4C(=O)C=C5[C@@H]6C[C@@](C)(C(=O)O)CC[C@]6(C)CC[C@@]5(C)[C@]4(C)CC[C@H]3C(C)(C)C2=O)c(F)c1 | – | 19.1 | – |
| CC1(C)[C@@H](O)/C(=C/c2ccc(Br)cc2)C[C@]2(C)[C@H]3C(=O)C=C4[C@@H]5C[C@@](C)(C(=O)O)CC[C@]5(C)CC[C@@]4(C)[C@]3(C)CC[C@@H]12 | 103.5 | – | – |

| Compound | Activity [1] [%] | Activity [4] [%] | also measured |
| --- | --- | --- | --- |
| CC1(C)[C@@H](O[C@H]2O[C@H](C(=O)O)[C@@H](O)[C@H](O)[C@H]2O[C@@H]2O[C@H](C(=O)O)[C@@H](O)[C@H](O)[C@H]2O)CC[C@]2(C)[C@H]3C(=O)C=C4[C@@H]5C[C@@](C)(C(=O)O)CC[C@]5(C)CC[C@@]4(C)[C@]3(C)CC[C@@H]12 | – | – | Activity [6]: Active |
| CC1(C)C(=O)/C(=C/c2cccc(F)c2)C[C@]2(C)[C@H]3C(=O)C=C4[C@@H]5C[C@@](C)(C(=O)O)CC[C@]5(C)CC[C@@]4(C)[C@]3(C)CC[C@@H]12 | – | 6.5 | – |
| CC1(C)C(=O)/C(=C/c2ccccc2)C[C@]2(C)[C@H]3C(=O)C=C4[C@@H]5C[C@@](C)(C(=O)O)CC[C@]5(C)CC[C@@]4(C)[C@]3(C)CC[C@@H]12 | – | 11.5 | – |
| COc1ccc(/C=C2\C[C@]3(C)[C@H]4C(=O)C=C5[C@@H]6C[C@@](C)(C(=O)O)CC[C@]6(C)CC[C@@]5(C)[C@]4(C)CC[C@H]3C(C)(C)[C@H]2O)c(F)c1 | 106.7 | – | Activity [7]: Active; Activity [2]: 19.5%; Activity [8]: Active; Activity [9]: Dde; Activity [5]: 8.3%; Activity [10]: Active; Activity [11]: Dde |
| CC1(C)C(=O)/C(=C/c2ccc(Cl)cc2)C[C@]2(C)[C@H]3C(=O)C=C4[C@@H]5C[C@@](C)(C(=O)O)CC[C@]5(C)CC[C@@]4(C)[C@]3(C)CC[C@@H]12 | 113.9 | – | – |
| CC1(C)C(=O)/C(=C/c2ccc(Br)cc2)C[C@]2(C)[C@H]3C(=O)C=C4[C@@H]5C[C@@](C)(C(=O)O)CC[C@]5(C)CC[C@@]4(C)[C@]3(C)CC[C@@H]12 | – | 17.5 | – |
| Cc1ccc(/C=C2\C[C@]3(C)[C@H]4C(=O)C=C5[C@@H]6C[C@@](C)(C(=O)O)CC[C@]6(C)CC[C@@]5(C)[C@]4(C)CC[C@H]3C(C)(C)[C@H]2O)s1 | 101.1 | – | – |
| COc1cc(Br)c(/C=C2\C[C@]3(C)[C@H]4C(=O)C=C5[C@@H]6C[C@@](C)(C(=O)O)CC[C@]6(C)CC[C@@]5(C)[C@]4(C)CC[C@H]3C(C)(C)C2=O)cc1O | 104.7 | – | Activity [5]: 3% |
| Cc1ccc(/C=C2\C[C@]3(C)[C@H]4C(=O)C=C5[C@@H]6C[C@@](C)(C(=O)O)CC[C@]6(C)CC[C@@]5(C)[C@]4(C)CC[C@H]3C(C)(C)C2=O)cc1 | – | 30.5 | – |
| CC1(C)C(=O)/C(=C/c2cccc3ccccc23)C[C@]2(C)[C@H]3C(=O)C=C4[C@@H]5C[C@@](C)(C(=O)O)CC[C@]5(C)CC[C@@]4(C)[C@]3(C)CC[C@@H]12 | – | 11.5 | – |
| CCc1ccc(/C=C2\C[C@]3(C)[C@H]4C(=O)C=C5[C@@H]6C[C@@](C)(C(=O)O)CC[C@]6(C)CC[C@@]5(C)[C@]4(C)CC[C@H]3C(C)(C)C2=O)cc1 | – | 28.8 | – |
| CSc1ccc(/C=C2\C[C@]3(C)[C@H]4C(=O)C=C5[C@@H]6C[C@@](C)(C(=O)O)CC[C@]6(C)CC[C@@]5(C)[C@]4(C)CC[C@H]3C(C)(C)C2=O)cc1 | – | 8.4 | – |
| CCOc1cccc(/C=C2\C[C@]3(C)[C@H]4C(=O)C=C5[C@@H]6C[C@@](C)(C(=O)O)CC[C@]6(C)CC[C@@]5(C)[C@]4(C)CC[C@H]3C(C)(C)C2=O)c1 | – | 35.7 | – |
| COc1ccc(/C=C2\C[C@]3(C)[C@H]4C(=O)C=C5[C@@H]6C[C@@](C)(C(=O)O)CC[C@]6(C)CC[C@@]5(C)[C@]4(C)CC[C@H]3C(C)(C)C2=O)c(Br)c1O | – | 10 | – |
| CC1(C)C(=O)CC[C@]2(C)[C@H]3C(=O)C=C4[C@@H]5C[C@@](C)(C(=O)O)CC[C@]5(C)CC[C@@]4(C)[C@]3(C)CC[C@@H]12 | – | 5.2 | – |
| CC1(C)[C@@H](O)/C(=C/c2ccncc2)C[C@]2(C)[C@H]3C(=O)C=C4[C@@H]5C[C@@](C)(C(=O)O)CC[C@]5(C)CC[C@@]4(C)[C@]3(C)CC[C@@H]12 | – | 3.2 | – |
| COc1ccc(/C=C2\C[C@]3(C)[C@H]4C(=O)C=C5[C@@H]6C[C@@](C)(C(=O)O)CC[C@]6(C)CC[C@@]5(C)[C@]4(C)CC[C@H]3C(C)(C)[C@H]2O)c(Br)c1O | – | 20.2 | – |

Reference: ChEMBL document CHEMBL5214947, “Photoprotective effect of 18β-glycyrrhetinic acid derivatives against ultra violet (UV)-B-Induced skin aging” (Bioorg Med Chem Lett, 2022)
